According to ChEMBL document CHEMBL1201862, “PubChem BioAssay data set” (2004):
Activity calls are given as the source filed them.

Assays:
[1] = target: T1, Voltage-gated N-type calcium channel alpha-1B subunit/Amyloid beta A4 precursor protein-binding family A member 1 (Homo sapiens, UniProt Q00975+Q02410); experiment: disruptors of Mint-PDZ/N-type channel peptide interaction – biochemical, HTRF, SAR follow-up (AID 2489); format: functional
[2] = target: T1, Voltage-gated N-type calcium channel alpha-1B subunit/Amyloid beta A4 precursor protein-binding family A member 1; experiment: disruptors of Mint-PDZ/N-type channel peptide interaction – biochemical, HTRF, set 2, SAR follow-up (AID 434980); format: functional
Vero = experiment: cells; format: functional; settings: Chlorocebus sabaeus
[3] = target: Heat shock protein HSP 90-alpha (Homo sapiens, UniProt P07900); format: functional, organism-based
Beta-galactosidase = Beta-galactosidase (Escherichia coli, UniProt Q8VNN2); experiment: beta-galactosidase enzyme inhibitors and activators, dose response, artefact control for CCR6 antagonist project, biochemical, E. coli enzyme, set 3 (AID 504712); format: functional
[4] = target: C-C chemokine receptor type 6 (Homo sapiens, UniProt P51684); experiment: CCR6 receptor antagonists, dose response, cell-based, luminescent beta-arrestin readout (AID 504728); format: functional
INS1 = experiment: beta cell apoptosis inhibitors, cytokine rescue, dose response, luminescence, retest (AID 449756); format: functional, cell-based; settings: Rattus norvegicus;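 further: cell death triggered by IL-1 beta plus TNF-alpha plus IFN-gamma mixture; protective hits raise ATP signal compared with cytokine alone wells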
[5] = target: Neurotensin receptor type 1 (Homo sapiens, UniProt P30989); format: functional;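 further: Image-based confirmatory dose-response assay measuring agonist activity at NTR1; NTR1-expressing U2OS osteosarcoma cells imaged for beta-arrestin GFP spot formation; agonist potency where compounds increase beta-arrestin recruitment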
[6] = Luminescence Cell-Based Dose Retest to Confirm Inhibitors of Cancer Stem Cells. [Related pubchem assays (depositor defined):AID2717, AID2721]; format: functional; settings: Homo sapiens
[7] = target: T2, Ubiquitin-conjugating enzyme E2 N (Homo sapiens, UniProt P61088); format: functional;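 further: Dose-response confirmation in a TR-FRET assay detecting UBC13-driven polyubiquitin chain formation, inhibition measured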
T2 sequence (P61088 whole entry): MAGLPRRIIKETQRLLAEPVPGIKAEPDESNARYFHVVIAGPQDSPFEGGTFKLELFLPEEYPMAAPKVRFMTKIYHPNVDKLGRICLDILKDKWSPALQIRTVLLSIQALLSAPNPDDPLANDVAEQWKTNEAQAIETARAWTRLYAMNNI

Wee1-like protein kinase = Wee1-like protein kinase (Homo sapiens, UniProt P30291); experiment: G2/M cell cycle arrest in HeLa, late-stage follow-up, mechanism study for Wee1 degradation inhibitor project, FACS, panel member Wee1 Degradation (AID 2088)
[8] = target: G2/mitotic-specific cyclin-B1 (Homo sapiens, UniProt P14635); experiment: G2/M cell cycle arrest in HeLa, late-stage follow-up, mechanism study for Wee1 degradation inhibitor project, FACS, panel member Cyclin B Degradation (AID 2088)
[9] = target: 72 kDa type IV collagenase (Homo sapiens, UniProt P08253); experiment: Dose Response validation of uHTS RPN11 inhibitor hits using a MMP-2 Fluorescence assay.; format: functional
[10] = target: Glucose-6-phosphate 1-dehydrogenase (Homo sapiens, UniProt P11413); experiment: human G6PD enzyme inhibitors, dose response, selectivity assay for P. falciparum G6PD inhibitor project, biochemical, fluorescence (AID 504792); format: functional
[11] = target: 26S proteasome non-ATPase regulatory subunit 14 (Homo sapiens, UniProt O00487); experiment: inhibition of proteasome subunit RPN11 – biochemical, fluorescence polarization, uHTS hits, confirmation (AID 602368); format: functional
[12] = target: Glutathione-S-transferase (Schistosoma japonicum, UniProt Q26513); experiment: biotin-GST/anti-GST TR-FRET signal inhibitors, dose response, artefact control for Vif-APOBEC3G degradation inhibitor project, biochemical (AID 1117362); format: functional
[13] = THP-1 cell cytotoxicity, dose response, cytotoxicity control for Vif-APOBEC3G degradation inhibitor project, THP-1 cells (AID 1117359); format: functional; settings: Human immunodeficiency virus 1, THP-1
[14] = human group III sPLA2 inhibitors, dose response, biochemical, QFRET, IC50 (AID 743457);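 further: green fluorescence rise as the enzyme cleaves BODIPY PC-A2 in liposomes; potency for inhibition of the enzyme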
[15] = target: Botulinum neurotoxin type F (Clostridium botulinum, UniProt P30996); experiment: High-throughput multiplex microsphere dose response for inhibitors of toxin protease, specifically Botulinum neurotoxin light chain F protease, compounds from Cherry Pick 02.; format: functional; settings: read-out: EC50_MICROM
Nonstructural protein 1 = Nonstructural protein 1 (Influenza A virus, UniProt Q194T2); format: functional, Influenza A virus (A/California/07/2009(H1N1))
Prothrombin = Prothrombin (Bos taurus, UniProt P00735); experiment: thrombin inhibition, dose response, biochemical, fluorescence polarization, uHTS hits (AID 602369); format: functional
[16] = target: Matrix metalloproteinase-14 (Homo sapiens, UniProt P50281); experiment: Dose Response confirmation of uHTS hits for a small molecule inhibitors of MT1-MMP activation in a fluorescence assay set 1.; format: functional
Protein Tat = Protein Tat (Human immunodeficiency virus type 1 group M subtype B (isolate HXB2)(HIV-1), UniProt P04608); format: functional;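 further: tat binding to TAR RNA read out by fluorescence polarization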
[17] = target: T3, Histone-lysine N-methyltransferase NSD2 (Homo sapiens, UniProt O96028); format: biochemical
T3 sequence (O96028 whole entry): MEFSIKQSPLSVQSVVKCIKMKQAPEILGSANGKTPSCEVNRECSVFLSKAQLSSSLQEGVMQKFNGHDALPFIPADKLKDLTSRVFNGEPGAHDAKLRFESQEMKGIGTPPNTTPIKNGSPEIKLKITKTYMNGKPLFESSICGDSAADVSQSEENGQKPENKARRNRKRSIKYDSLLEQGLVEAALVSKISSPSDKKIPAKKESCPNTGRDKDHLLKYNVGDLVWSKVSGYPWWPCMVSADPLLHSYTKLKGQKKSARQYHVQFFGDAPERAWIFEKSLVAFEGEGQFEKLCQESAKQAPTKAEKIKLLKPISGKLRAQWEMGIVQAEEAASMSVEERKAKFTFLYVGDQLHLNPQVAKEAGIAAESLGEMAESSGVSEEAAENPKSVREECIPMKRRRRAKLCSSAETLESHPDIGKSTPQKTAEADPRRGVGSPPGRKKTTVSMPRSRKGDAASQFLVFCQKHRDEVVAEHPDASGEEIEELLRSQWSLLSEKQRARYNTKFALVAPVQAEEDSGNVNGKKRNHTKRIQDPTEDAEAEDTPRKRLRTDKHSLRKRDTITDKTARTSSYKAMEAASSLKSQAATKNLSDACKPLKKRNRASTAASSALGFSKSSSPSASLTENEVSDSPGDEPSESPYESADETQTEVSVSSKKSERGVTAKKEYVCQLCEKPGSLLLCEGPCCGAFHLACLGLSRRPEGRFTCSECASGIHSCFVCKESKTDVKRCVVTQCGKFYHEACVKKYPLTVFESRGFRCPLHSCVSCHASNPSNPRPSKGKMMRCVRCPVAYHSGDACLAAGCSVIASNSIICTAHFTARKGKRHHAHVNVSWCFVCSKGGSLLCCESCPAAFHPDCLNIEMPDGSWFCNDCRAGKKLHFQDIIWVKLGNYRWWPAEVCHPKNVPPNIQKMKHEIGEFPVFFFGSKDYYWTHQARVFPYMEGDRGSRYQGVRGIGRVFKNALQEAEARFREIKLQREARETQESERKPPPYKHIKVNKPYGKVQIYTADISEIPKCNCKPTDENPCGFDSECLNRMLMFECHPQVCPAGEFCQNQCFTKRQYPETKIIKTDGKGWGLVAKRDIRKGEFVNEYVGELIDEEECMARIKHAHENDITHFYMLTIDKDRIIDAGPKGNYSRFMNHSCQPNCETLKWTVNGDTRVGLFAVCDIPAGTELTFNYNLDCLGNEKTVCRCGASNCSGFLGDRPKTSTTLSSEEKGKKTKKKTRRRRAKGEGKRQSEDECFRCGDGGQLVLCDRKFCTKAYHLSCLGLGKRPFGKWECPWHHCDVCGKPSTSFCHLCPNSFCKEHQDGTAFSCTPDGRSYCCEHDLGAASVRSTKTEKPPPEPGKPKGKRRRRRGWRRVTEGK

[18] = target: Cystic fibrosis transmembrane conductance regulator/Golgi-associated PDZ and coiled-coil motif-containing protein (Homo sapiens, UniProt P13569+Q9HD26); experiment: CAL PDZ peptide-binding inhibitors, dose response, biochemical, fluorescence polarization, Cerulean-tagged CAL PDZ, cherry-picks (AID 504773)
[19] = target: T4, COUP transcription factor 2 (Homo sapiens, UniProt P24468); experiment: Luminescence-based cell-based high throughput dose response assay to identify inhibitors of COUP-TFII (NR2F2).; format: functional;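 further: HEK293 cells transiently cotransfected with COUP-TFII expression vector and reporter; luciferase reporter luminescence driven by COUP-TFII from the pX2-168 reporter plasmid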
T4 sequence (P24468 whole entry): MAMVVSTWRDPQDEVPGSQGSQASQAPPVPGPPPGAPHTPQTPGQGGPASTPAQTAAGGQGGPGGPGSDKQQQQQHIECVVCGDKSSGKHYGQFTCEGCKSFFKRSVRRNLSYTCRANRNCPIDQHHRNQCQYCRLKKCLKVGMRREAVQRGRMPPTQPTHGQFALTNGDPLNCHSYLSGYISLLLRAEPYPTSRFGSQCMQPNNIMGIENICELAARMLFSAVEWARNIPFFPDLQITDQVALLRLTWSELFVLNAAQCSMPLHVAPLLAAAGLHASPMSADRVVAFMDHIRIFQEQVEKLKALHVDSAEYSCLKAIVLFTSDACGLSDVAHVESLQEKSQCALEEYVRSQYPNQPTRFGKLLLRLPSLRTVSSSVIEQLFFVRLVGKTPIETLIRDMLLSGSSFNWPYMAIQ

T1 sequence (Q00975 whole entry): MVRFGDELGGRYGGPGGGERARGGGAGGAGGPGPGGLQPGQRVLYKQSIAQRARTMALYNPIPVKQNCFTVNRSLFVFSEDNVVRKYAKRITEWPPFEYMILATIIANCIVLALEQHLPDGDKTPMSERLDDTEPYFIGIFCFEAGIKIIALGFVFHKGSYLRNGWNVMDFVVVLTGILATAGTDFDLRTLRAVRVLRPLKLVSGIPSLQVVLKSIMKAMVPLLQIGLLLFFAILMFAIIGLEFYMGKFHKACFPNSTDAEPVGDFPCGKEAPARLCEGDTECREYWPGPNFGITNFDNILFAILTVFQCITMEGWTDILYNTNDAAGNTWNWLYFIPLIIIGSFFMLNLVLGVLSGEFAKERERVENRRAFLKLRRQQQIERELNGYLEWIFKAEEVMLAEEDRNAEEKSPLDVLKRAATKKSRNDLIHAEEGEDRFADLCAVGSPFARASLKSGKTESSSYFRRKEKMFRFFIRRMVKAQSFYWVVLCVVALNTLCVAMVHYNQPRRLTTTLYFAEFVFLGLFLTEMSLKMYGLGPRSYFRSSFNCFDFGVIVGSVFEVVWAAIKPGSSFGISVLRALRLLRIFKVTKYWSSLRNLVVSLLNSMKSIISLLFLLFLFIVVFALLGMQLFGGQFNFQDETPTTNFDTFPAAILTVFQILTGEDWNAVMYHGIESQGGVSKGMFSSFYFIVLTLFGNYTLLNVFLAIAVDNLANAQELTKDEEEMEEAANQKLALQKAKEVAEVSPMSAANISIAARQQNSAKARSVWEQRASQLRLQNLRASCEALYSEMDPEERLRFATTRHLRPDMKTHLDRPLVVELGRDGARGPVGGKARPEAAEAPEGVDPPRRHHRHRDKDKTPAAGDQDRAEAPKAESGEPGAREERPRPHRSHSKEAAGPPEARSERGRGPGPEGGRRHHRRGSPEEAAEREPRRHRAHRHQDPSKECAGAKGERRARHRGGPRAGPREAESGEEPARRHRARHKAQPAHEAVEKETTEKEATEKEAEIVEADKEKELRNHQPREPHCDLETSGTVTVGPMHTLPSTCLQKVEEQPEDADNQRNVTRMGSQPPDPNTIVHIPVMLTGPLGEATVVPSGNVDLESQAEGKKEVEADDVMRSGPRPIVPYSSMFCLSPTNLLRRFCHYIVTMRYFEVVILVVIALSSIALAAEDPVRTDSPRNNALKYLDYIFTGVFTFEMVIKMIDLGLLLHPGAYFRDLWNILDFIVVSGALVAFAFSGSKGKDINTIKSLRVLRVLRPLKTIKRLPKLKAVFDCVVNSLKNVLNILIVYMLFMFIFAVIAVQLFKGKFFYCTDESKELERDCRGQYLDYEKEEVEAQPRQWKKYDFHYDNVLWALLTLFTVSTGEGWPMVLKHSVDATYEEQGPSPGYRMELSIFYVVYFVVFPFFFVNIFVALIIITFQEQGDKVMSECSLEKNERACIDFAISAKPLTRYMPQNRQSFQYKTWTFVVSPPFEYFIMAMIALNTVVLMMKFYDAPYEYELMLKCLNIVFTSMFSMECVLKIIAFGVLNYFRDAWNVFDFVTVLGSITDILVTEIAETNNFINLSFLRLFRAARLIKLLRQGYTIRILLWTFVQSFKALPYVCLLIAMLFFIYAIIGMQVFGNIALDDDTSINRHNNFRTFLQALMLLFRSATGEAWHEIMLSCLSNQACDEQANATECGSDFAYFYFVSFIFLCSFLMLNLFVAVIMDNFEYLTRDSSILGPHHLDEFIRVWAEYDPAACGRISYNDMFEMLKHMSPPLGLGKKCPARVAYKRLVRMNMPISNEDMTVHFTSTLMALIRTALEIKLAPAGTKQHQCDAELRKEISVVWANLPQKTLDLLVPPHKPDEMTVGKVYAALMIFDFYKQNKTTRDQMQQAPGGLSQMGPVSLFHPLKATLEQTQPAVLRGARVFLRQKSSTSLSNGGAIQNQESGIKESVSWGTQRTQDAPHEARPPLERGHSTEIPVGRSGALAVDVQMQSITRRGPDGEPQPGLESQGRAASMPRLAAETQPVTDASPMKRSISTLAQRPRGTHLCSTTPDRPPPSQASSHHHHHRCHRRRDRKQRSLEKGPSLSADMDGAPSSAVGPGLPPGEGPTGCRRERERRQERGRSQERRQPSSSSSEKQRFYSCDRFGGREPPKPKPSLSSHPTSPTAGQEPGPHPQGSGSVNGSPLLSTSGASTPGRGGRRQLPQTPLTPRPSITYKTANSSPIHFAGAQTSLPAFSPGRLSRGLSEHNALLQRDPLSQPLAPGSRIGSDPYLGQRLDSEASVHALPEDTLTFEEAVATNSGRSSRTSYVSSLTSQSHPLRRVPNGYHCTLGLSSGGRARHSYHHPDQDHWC
T1 sequence (Q02410 whole entry): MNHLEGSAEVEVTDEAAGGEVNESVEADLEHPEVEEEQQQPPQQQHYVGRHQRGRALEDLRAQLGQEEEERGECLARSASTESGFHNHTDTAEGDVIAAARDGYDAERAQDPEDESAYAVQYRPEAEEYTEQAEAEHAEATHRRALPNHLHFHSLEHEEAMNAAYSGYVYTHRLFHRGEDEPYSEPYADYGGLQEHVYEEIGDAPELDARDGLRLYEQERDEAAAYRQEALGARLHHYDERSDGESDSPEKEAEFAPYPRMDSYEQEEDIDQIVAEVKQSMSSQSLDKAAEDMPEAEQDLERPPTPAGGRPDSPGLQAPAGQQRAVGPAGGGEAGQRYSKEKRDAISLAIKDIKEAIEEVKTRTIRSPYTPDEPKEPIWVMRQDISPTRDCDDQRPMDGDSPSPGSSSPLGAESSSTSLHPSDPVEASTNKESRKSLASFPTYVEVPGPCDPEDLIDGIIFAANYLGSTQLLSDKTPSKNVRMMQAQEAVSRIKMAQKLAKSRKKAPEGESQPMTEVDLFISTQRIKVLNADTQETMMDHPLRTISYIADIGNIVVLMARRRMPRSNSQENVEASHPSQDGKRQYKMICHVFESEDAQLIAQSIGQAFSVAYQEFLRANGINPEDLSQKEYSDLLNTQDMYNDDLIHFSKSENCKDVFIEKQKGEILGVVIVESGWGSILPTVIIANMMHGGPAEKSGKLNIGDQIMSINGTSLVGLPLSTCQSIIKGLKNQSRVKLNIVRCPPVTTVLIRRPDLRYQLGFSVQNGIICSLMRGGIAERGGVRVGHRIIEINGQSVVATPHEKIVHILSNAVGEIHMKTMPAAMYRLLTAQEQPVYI
Nonstructural protein 1, sequence (Q194T2 whole entry): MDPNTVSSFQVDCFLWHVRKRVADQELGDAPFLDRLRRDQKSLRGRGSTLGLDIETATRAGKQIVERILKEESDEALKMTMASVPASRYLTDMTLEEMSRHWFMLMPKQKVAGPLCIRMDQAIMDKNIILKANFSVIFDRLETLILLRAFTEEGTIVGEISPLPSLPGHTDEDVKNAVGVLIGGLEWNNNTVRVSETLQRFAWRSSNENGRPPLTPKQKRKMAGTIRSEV
Glutathione-S-transferase, sequence (Q26513 whole entry): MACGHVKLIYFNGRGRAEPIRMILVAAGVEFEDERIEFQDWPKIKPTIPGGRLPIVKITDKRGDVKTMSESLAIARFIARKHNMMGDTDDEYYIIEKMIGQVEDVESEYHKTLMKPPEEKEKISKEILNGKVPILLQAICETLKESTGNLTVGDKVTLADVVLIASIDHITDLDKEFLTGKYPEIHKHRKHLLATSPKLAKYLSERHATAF
72 kDa type IV collagenase, sequence (P08253 whole entry): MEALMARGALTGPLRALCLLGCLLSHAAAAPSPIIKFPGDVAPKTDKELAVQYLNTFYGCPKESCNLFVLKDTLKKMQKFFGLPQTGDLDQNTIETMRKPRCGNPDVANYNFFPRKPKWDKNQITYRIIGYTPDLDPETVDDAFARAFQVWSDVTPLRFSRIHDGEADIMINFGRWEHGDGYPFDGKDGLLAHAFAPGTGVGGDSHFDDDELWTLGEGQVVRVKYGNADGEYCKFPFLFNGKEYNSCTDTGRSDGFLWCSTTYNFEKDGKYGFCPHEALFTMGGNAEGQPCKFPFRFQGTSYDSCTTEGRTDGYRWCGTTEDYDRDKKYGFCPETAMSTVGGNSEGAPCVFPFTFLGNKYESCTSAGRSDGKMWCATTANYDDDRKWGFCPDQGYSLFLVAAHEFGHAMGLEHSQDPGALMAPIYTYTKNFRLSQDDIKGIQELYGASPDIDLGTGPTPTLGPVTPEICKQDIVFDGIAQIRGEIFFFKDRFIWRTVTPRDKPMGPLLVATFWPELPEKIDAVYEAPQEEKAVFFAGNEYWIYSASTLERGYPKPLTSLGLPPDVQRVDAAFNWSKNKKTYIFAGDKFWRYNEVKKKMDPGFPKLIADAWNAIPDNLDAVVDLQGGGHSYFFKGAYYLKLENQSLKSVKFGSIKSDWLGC
G2/mitotic-specific cyclin-B1, sequence (P14635 whole entry): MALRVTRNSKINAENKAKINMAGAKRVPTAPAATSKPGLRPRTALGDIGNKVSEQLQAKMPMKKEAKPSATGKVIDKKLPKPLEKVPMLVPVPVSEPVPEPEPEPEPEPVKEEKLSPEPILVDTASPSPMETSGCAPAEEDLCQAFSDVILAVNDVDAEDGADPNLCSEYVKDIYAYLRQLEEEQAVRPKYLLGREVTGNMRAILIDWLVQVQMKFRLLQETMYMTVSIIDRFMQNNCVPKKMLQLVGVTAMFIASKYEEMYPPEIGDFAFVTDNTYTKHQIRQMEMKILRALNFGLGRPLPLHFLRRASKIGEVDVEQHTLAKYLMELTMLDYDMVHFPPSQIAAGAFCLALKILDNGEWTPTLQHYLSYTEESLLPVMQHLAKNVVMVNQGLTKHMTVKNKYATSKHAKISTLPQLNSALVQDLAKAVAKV
26S proteasome non-ATPase regulatory subunit 14, sequence (O00487 whole entry): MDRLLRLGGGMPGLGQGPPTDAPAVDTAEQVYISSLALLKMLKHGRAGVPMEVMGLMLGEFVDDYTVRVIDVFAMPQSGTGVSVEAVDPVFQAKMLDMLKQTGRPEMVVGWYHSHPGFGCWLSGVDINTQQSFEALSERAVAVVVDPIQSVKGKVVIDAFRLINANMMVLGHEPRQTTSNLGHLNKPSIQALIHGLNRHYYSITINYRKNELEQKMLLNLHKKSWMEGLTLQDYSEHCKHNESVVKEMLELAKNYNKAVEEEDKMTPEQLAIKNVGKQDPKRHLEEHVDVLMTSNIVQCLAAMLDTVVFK

O=C(NCCc1ccccn1)c1cc(-c2ccco2)nc2ccccc12
IC50 [1]: > 56.8 µM (inactive)
IC50 [2]: > 56.8 µM (inactive)

O=[N+]([O-])c1cccc(C=NNc2ccc3ccccc3n2)c1O
CC50 (Vero): 1.44 µM (active)
AC50 [3]: 2.76 µM (active)
IC50 (Beta-galactosidase): > 66.6 µM (inactive)
IC50 [4]: > 66.6 µM (inactive)

CC(C)C[C@H]1CN=C(Nc2ccccc2)N1CC1CCC(C(C)(C)C)CC1 (some centres not stated)
AC50 (INS1): 6.54 µM (active)
EC50 [5]: 15.7 µM (active)
AC50 [6]: 5.02 µM (active)
IC50 [7]: > 20 µM (inactive)

CC(C)c1ccc(NC(=O)CCCOc2cc(=O)n(C)c3ccccc23)cc1
EC50 (Wee1-like protein kinase): > 49.7 µM (inactive)
EC50 [8]: > 49.7 µM (inactive)

COc1cc(N(C)C)ccc1C=c1c2ccccc2n2c1cc(-c1ccccc1)[n+]2C
IC50 [9]: > 100 µM (inactive)
IC50 [10]: > 80 µM (inactive)
IC50 [11]: 24.9 µM (active)
IC50 [12]: 3.69 µM (active)
AC50 [3]: 7.6 µM (active)
CC50 [13]: 0.22 µM (active)
IC50 [14]: 19.2 µM (inactive)
EC50 [15]: > 20 µM (inactive)
IC50 (Nonstructural protein 1): 3.2 µM (active)
IC50 (Prothrombin): 11.8 µM (active)
IC50 [16]: 14.6 µM (active)
IC50 (Protein Tat): > 100 µM (active)
AC50 [17]: 3.07 µM (active)
AC50 [18]: 39.9 µM (active)
IC50 [19]: 4.89 µM (active)
